In ChEMBL document CHEMBL5257090, “Modulation of in Vitro SARS-CoV-2 Infection by Stephania tetrandra and Its Alkaloid Constituents” (J Nat Prod, 2023):
The source made the active and inactive calls. The rule behind the calls is not given here.

Experiments:
HEK-293T [1] = test: Cytotoxicity against HEK293T cells at 0.1 uM assessed as reduction in cell viability by CellTiter-Glo assay; assay type: toxicity, cell-based; settings: human
HEK-293T [2] = test: Cytotoxicity against HEK293T cells at 10 uM assessed as reduction in cell viability by CellTiter-Glo assay; assay type: toxicity, cell-based; settings: human
SARS-CoV-2 [3] = test: Antiviral activity against SARS-CoV-2 infected in HEK293T cells expressing ACE2/TMPRSS2 assessed as reduction in virus-induced cytopathic effect at 5 to 10 uM measured after 48 hrs by cellular ATP assay; assay type: functional, organism-based; settings: Severe acute respiratory syndrome coronavirus 2, dose 5-10 µM
SARS-CoV-2 [4] = test: Antiviral activity against SARS-CoV-2 infected in HEK293T cells expressing ACE2/TMPRSS2 assessed as reduction in virus-induced cytopathic effect measured after 48 hrs by cellular ATP assay; assay type: functional, organism-based; settings: Severe acute respiratory syndrome coronavirus 2, HEK-293T
SARS-CoV-2 [5] = test: Antiviral activity against SARS-CoV-2 infected in HEK293T cells expressing ACE2/TMPRSS2 assessed as reduction in virus-induced cytopathic effect at 10 uM measured after 48 hrs by cellular ATP assay; assay type: functional, Severe acute respiratory syndrome coronavirus 2; parameters: scale not given: the % may be the effect or the level left
SARS-CoV-2 [6] = test: Antiviral activity against SARS-CoV-2 infected in HEK293T cells expressing ACE2/TMPRSS2 assessed as reduction in virus-induced cytopathic effect at 2.5 uM measured after 48 hrs by cellular ATP assay; assay type: functional, Severe acute respiratory syndrome coronavirus 2; parameters: scale not given: the % may be the effect or the level left
HEK-293T [7] = test: Cytotoxicity against HEK293T cells at 2.5 to 10 uM assessed as reduction in cell viability by CellTiter-Glo assay; assay type: toxicity, cell-based; settings: human, dose 2.5-10 µM
[8] = Induction of phospholipidosis in HEK293T cells expressing ACE-2/TMPRSS2 at 100 to 300 nM measured after 24 hrs by DAPI staining based fluorescence microscopic analysis; assay type: toxicity, cell-based; settings: human, hek-293t, 0.3 µM, dose 100-300 nM
SARS-CoV-2 [9] = test: Antiviral activity against wild-type SARS-CoV-2 USA-WA1/2020 NR-52281 infected in African green monkey Vero E6 cells expressing ACE-2/TMPRSS2 assessed as reduction in virus-induced cytopathic effect at 0.31 to 2.5 uM measured after 48 hrs by cellular ATP assay; assay type: functional, organism-based; settings: Severe acute respiratory syndrome coronavirus 2, dose 0.31-2.5 µM
[10] = Induction of phospholipidosis in African green monkey Vero E6 cells expressing ACE-2/TMPRSS2 at 100 to 300 nM measured after 24 hrs by DAPI staining based fluorescence microscopic analysis; assay type: toxicity, cell-based; settings: chlorocebus sabaeus, vero c1008, 24 h, 0.3 µM, dose 100-300 nM
[11] = Cytotoxicity against HEK293T cells assessed as reduction in cell viability by CellTiter-Glo assay; assay type: toxicity, cell-based, HEK-293T; settings: human
HEK-293T [12] = test: Downregulation of ORF1ab gene expression in HEK293T cells expressing ACE-2/TMPRSS2 infected with SARS-CoV-2 assessed as fold change preincubated with compound for 2 hrs followed by viral infection and measured after 24 hrs relative to MPV; assay type: functional, cell-based; settings: Homo sapiens, time 26.0 hrs
[13] = Induction of phospholipidosis in HEK293T cells expressing ACE-2/TMPRSS2 at 1 uM measured after 24 hrs by DAPI staining based fluorescence microscopic analysis; assay type: toxicity, cell-based; settings: human, hek-293t
[14] = Permeability of the compound in pH 7.4 measured after 5 hrs by LC-MS based PAMPA assay; assay type: ADME; settings: pH 7.4, 5 h
SARS-CoV-2 [15] = test: Antiviral activity against SARS-CoV-2 delta infected in African green monkey Vero E6 cells expressing ACE-2/TMPRSS2 assessed as reduction in virus-induced cytopathic effect at 0.31 to 2.5 uM measured after 48 hrs by cellular ATP assay; assay type: functional, organism-based; settings: Severe acute respiratory syndrome coronavirus 2, dose 0.31-2.5 µM
HEK-293T [16] = test: Downregulation of viral nucleocapsid N gene expression in HEK293T cells expressing ACE-2/TMPRSS2 infected with SARS-CoV-2 assessed as fold change preincubated with compound for 2 hrs followed by viral infection and measured after 24 hrs relative to MPV; assay type: functional, cell-based; settings: Homo sapiens, time 26.0 hrs
HEK-293T [17] = test: Up-regulation of leukocyte proliferation genes in HEK293T cells expressing ACE-2/TMPRSS2 infected with SARS-CoV-2 preincubated with compound for 2 hrs followed by viral infection and measured after 24 hrs by gene ontology analysis; assay type: functional, cell-based; settings: Homo sapiens, time 26.0 hrs

## CCC(CC)COC(=O)[C@H](C)N[P@](=O)(OC[C@H]1O[C@@](C#N)(c2ccc3c(N)ncnn23)[C@H](O)[C@@H]1O)Oc1ccccc1
HEK-293T [1]
  Activity: Non-Toxic
HEK-293T [2]
  Activity: Toxic

## CN1[C@@H](CC(=O)c2ccccc2)CCC[C@H]1C[C@H](O)c1ccccc1
SARS-CoV-2 [3]
  Activity: inactive

## O=C(O)[C@H]1O[C@@H](Oc2cc3oc(-c4ccccc4)cc(=O)c3c(O)c2O)[C@H](O)[C@@H](O)[C@@H]1O
SARS-CoV-2 [3]
  Activity: inactive

## O=c1cc(-c2ccccc2)oc2cc(O)c(O)c(O)c12 [BAICALEIN]
SARS-CoV-2 [4]
  IC50: 5100 nM

## CN(C)C(=O)COC(=O)Cc1ccc(OC(=O)c2ccc(NC(=N)N)cc2)cc1 [CAMOSTAT]
SARS-CoV-2 [5]
  Activity: 54.5%
SARS-CoV-2 [6]
  Activity: 23%
HEK-293T [7]
  Activity: Non-Toxic

## COc1ccc2cc1Oc1ccc(cc1)C[C@H]1c3c(cc4c(c3Oc3cc5c(cc3OC)CCN(C)[C@@H]5C2)OCO4)CCN1C [CEPHARANTHINE]
[8]
  Activity: Non-Toxic
SARS-CoV-2 [4]
  IC50: 143 nM
SARS-CoV-2 [9]
  Activity: inactive
[10]
  Activity: Non-Toxic
[11]
  CC50: 2100 nM
HEK-293T [12]
  Activity: Active
[13]
  Activity: Toxic
[14]
  permeability: Permeable
SARS-CoV-2 [15]
  Activity: Active

## COc1ccc2cc1Oc1ccc(cc1)C[C@H]1c3cc(c(OC)cc3CCN1C)Oc1c(OC)c(OC)cc3c1[C@H](C2)N(C)CC3 [FANCHININ]
[8]
  Activity: Non-Toxic
SARS-CoV-2 [4]
  IC50: 284 nM
HEK-293T [16]
  Activity: Active
SARS-CoV-2 [9]
  Activity: inactive
[10]
  Activity: Non-Toxic
[11]
  CC50: > 1000 nM
HEK-293T [17]
  Activity: Active
HEK-293T [12]
  Activity: Active
[13]
  Activity: Toxic
[14]
  permeability: Permeable

## COc1ccc2cc1Oc1ccc(cc1)C[C@H]1c3cc(c(OC)cc3CCN1C)Oc1c(O)c(OC)cc3c1[C@H](C2)N(C)CC3 [FANGCHINOLINE]
[8]
  Activity: Non-Toxic
SARS-CoV-2 [4]
  IC50: 193 nM
SARS-CoV-2 [9]
  Activity: inactive
[10]
  Activity: Non-Toxic
[11]
  CC50: > 1000 nM
HEK-293T [17]
  Activity: Active
HEK-293T [12]
  Activity: Active
[13]
  Activity: Toxic
